Measurements: patent publication US20240132431A1, “METHOD FOR ALKYLATING ACIDIC FUNCTIONAL GROUP” (Chugai Seiyaku Kabushiki Kaisha, priority 2021, published 2024)
Blank lines part the entries; values can stand above or below the compound they belong to.

Target: T1, Bcl-2 protein (Recombinant Human Bcl-2 Protein) (Homo sapiens, UniProt P10415)
T1 construct: purchased Novus NBP2-34889
Assay: Binding evaluation of mixture library compounds to Bcl-2 using AS-MS (affinity selection mass spectrometry)
Details: for ASMS ratio (%) n = 1: replicate n = 1; for ASMS ratio (%) n = 1 / ASMS ratio (%) n = 2: ASMS Ratio(%)=(A−C)/B×100; for ASMS ratio (%) n = 2: replicate n = 2
Protocol: For one well of MICROPLATE, 96-well, PP, V-BOTTOM (Greiner bio-one, 651201), DMSO solutions of 12 mixtures (prepared to approximately 0.58 mM based on calculations from the average molecular weight of each mixture), in each of which 100 compounds are mixed, were each dispensed, and dispensed into a total of 12 wells, where the 12 mixtures are mixAI-B4J-01, mixAI-B1M-01, mixAI-B1K-01, mixAI-B10-01, mixAI-B1A-01, mixAI-B3A-01, mixAI-B21-01, mixAI-B2L-01, mixAI-B2N-01, mixAI-B2A-01, mixAI-B2Q-01, and mixAI-B2R-01 listed in [Table AI-03-B4J-01], [Table AI-03-B1M-01], [Table AI-03-B1K-01], [Table AI-03-B10-01], [Table AI-03-B1A-01], [Table AI-03-B3A-01], [Table AI-03-B2I-01], [Table AI-03-B2L-01], [Table AI-03-B2N-01], [Table AI-03-B2A-01], [Table AI-03-B2Q-01], and [AI-03-B2R-01] shown in Example 6. Using the LABCYTE ECHO® 555 Acoustic Dispensing System (BECKMAN COULTER), 70 nL was collected from each of the 12 wells into one arbitrary well to prepare a sample solution with 1200 compounds in the mixed state (the presence of 1152 compounds had already been identified when prepared in Example 6-5-3). (In the present specification, the mixture collected in this one well is referred to as one library.) Furthermore, a Bcl-2 protein (Novus, NBP2-34889, Recombinant Human Bcl-2 Protein, Lot E60145051) (19.2 μL) that had been prepared in advance to be 20.9 μM using a Tris-HCl buffer (25 mM Tris-HCl pH 7.4, 150 mM NaCl, 0.025% Tween-20, 1 mM DTT) was added to the well in which 1200 compounds (the presence of 1152 compounds had already been identified when prepared in Example 6-5-3) were dispensed (final compound concentration […], final Bcl-2 concentration 20 μM), and the mixture was incubated in the dark at 23° C. for 1 hour. Next, using the 96-well MacroSpin column, P-2 Material (Harvard, 74-5655) that had been swollen, conditioning of the 96-well MacroSpin column was performed three times by centrifugation with 200 μL of an assay buffer (25 mM Tris-HCl pH 7.4, 150 mM NaCl, 0.025% Tween-20, 1 mM DTT), 2000 XG, 4° C., 2 min. Subsequently, 20 μL of the sample after incubation was added to the 96-well MacroSpin column, P-2 Material, that had been conditioned, and SEC treatment was performed by centrifugation at 2000×G for 2 minutes. To the liquid passed from the SEC, 32 μL of a 1:1 mixed solution of acetonitrile and methanol (LC/MS grade, Fujifilm Wako Pure Chemical Corporation) was added, the mixture was centrifuged at 1800×G, 4° C., 5 min, and the supernatant was used as analysis sample ASMS (A), while a sample that had been prepared by the same operations at 1200 compounds/well and to which only the Tris-HCl buffer had been added without the Bcl-2 protein was incubated under the same conditions, no 96-well MacroSpin column treatment was performed, the same organic solvent was added, and the supernatant solution obtained by centrifugation was used as STD (B). Next, a sample that had been prepared by the same operations at 1200 compounds/well and to which only the Tris-HCl buffer had been added without the Bcl-2 protein was incubated under the same conditions, the same 96-well MacroSpin column treatment was performed, the same organic solvent was added, and the supernatant solution obtained by centrifugation was used as BK (C), and measured by reversed phase LC/MS.
Then, analysis of the 1200 compounds was carried out for samples A, B, and C with TraceFinder 5.1 (Thermo Fisher Scientific) and CHANCE Software (in-house), and the ASMS Ratio (%) was calculated according to the following calculation formula.
Calculation formula: ASMS Ratio(%)=(A−C)/B×100

[1] = AS-MS on the mixture of 1200 library compounds
[2] = AS-MS, mixture of 1200 compounds, Bcl-2

T1 sequence (P10415 whole entry): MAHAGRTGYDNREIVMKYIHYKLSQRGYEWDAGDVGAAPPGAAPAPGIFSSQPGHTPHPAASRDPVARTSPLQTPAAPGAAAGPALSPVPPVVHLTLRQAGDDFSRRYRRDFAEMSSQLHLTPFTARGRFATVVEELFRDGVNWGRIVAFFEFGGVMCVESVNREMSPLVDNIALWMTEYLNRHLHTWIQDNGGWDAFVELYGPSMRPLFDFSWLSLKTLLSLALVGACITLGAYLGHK

Compound: CCOc1cccc(-c2cnn(-c3cc(C(=O)N4CCN(c5ccc(C(=O)NS(=O)(=O)CC67CC8CC(CC(C8)C6)C7)nn5)CC4)cc(C(F)(F)F)c3)c2)c1 [B2A021-01, N-(1-Adamantylmethylsulfonyl)-6-[4-[3-[4-(3-ethoxyphenyl)pyrazol-1-yl]-5-(trifluoromethyl)benzoyl]piperazin-1-yl]pyridazine-3-carboxamide]
- ASMS ratio (%) n = 1 (AS-MS, mixture library, Bcl-2): 14.4%
- ASMS ratio (%) n = 2 (AS-MS, mixture library, Bcl-2): 9.4%

Compound: CCOc1cccc(-c2cc(CN3CCN(c4ccc(C(=O)NS(=O)(=O)CC56CC7CC(CC(C7)C5)C6)nn4)CC3)cc(C(F)(F)F)c2)c1 [B2A087-01, N-(1-Adamantylmethylsulfonyl)-6-[4-[[3-(3-ethoxyphenyl)-5-(trifluoromethyl)phenyl]methyl]piperazin-1-yl]pyridazine-3-carboxamide]
- ASMS ratio (%) n = 1 (AS-MS, mixture library, Bcl-2): 7.2%
- ASMS ratio (%) n = 2 (AS-MS, mixture library, Bcl-2): 12.7%

Compound: CCOc1cccc(-c2ccc(C(=O)N3CCN(c4ccc(C(=O)Nc5ccc(OC)cc5)nn4)CC3)cc2C)c1 [B1O003-01, 6-[4-[4-(3-Ethoxyphenyl)-3-methylbenzoyl]piperazin-1-yl]-N-(4-methoxyphenyl)pyridazine-3-carboxamide]
- ASMS ratio (%) n = 1 [1]: 0.0%
- ASMS ratio (%) n = 2 [1]: 0.0%

Compound: CCOc1cncc(-c2ccccc2CCC(=O)N2CCN(c3ccc(C(=O)N(CC)CC)cc3)CC2)c1 [B4J034-01, 4-[4-[3-[2-(5-Ethoxypyridin-3-yl)phenyl]propanoyl]piperazin-1-yl]-N,N-diethylbenzamide]
- ASMS ratio (%) n = 1 [1]: −0.7%
- ASMS ratio (%) n = 2 [1]: 0.9%

Compound: CCOc1cccc(C#Cc2cc(C(=O)N3CCN(c4ccc(C(=O)NCC56CC7CC(CC(C7)C5)C6)nn4)CC3)cc(C(F)(F)F)c2)c1 [B1A019-01, N-(1-Adamantylmethyl)-6-[4-[3-[2-(3-ethoxyphenyl)ethynyl]-5-(trifluoromethyl)benzoyl]piperazin-1-yl]pyridazine-3-carboxamide]
- ASMS ratio (%) n = 1 [2]: −3.9%
- ASMS ratio (%) n = 2 [2]: −7.5%

Compound: CCOc1cccc(-c2cc(C(=O)N3CCN(c4ccc(C(=O)NS(=O)(=O)CC56CC7CC(CC(C7)C5)C6)cc4)CC3)cc(C(F)(F)F)c2)c1 [B2A039-01, N-(1-Adamantylmethylsulfonyl)-4-[4-[3-(3-ethoxyphenyl)-5-(trifluoromethyl)benzoyl]piperazin-1-yl]benzamide]
- ASMS ratio (%) n = 1 (AS-MS, mixture library, Bcl-2): 7.4%
- ASMS ratio (%) n = 2 (AS-MS, mixture library, Bcl-2): −10.4%

Compound: 4-[4-[1-[4-(3-Ethoxyphenyl)-2-fluorophenyl]ethyl]piperazin-1-yl]-N-propylbenzamide [B1M005-01]
- ASMS ratio (%) n = 1 [2]: 0.0%
- ASMS ratio (%) n = 2 [2]: 1.4%

Compound: CCOc1cncc(-c2ccc(CN3CCN(c4ccc(C(=O)NCC56CC7CC(CC(C7)C5)C6)cc4)CC3)c(OC)c2)c1 [B1A054-01, N-(1-Adamantylmethyl)-4-[4-[[4-(5-ethoxypyridin-3-yl)-2-methoxyphenyl]methyl]piperazin-1-yl]benzamide]
- ASMS ratio (%) n = 1 [2]: 0.0%
- ASMS ratio (%) n = 2 [2]: 0.0%

Compound: CCOc1cccc(C#Cc2cc(C(=O)N3CCN(c4ccc(C(=O)NCC(F)(F)F)cc4)CC3)cc(C(F)(F)F)c2)c1 [B1K041-01, 4-[4-[3-[2-(3-Ethoxyphenyl)ethynyl]-5-(trifluoromethyl)benzoyl]piperazin-1-yl]-N-(2,2,2-trifluoroethyl)benzamide]
- ASMS ratio (%) n = 1 [2]: 0.0%
- ASMS ratio (%) n = 2 [2]: 0.0%

Compound: CCOc1cncc(-c2csc(CN3CCN(c4ccc(C(=O)NCC56CC7CC(CC(C7)C5)C6)cc4)CC3)c2)c1 [B1A068-01, N-(1-Adamantylmethyl)-4-[4-[[4-(5-ethoxypyridin-3-yl)thiophen-2-yl]methyl]piperazin-1-yl]benzamide]
- ASMS ratio (%) n = 1 [2]: 12.2%
- ASMS ratio (%) n = 2 [2]: 3.3%

Continued, values first:

- ASMS ratio (%) (n = 1): 0.0%
- ASMS ratio (%) (n = 2): 0.0%
Compound: CCOc1cncc(-c2cc(CN3CCN(c4ccc(C(=O)NS(C)(=O)=O)cc4)CC3)cc(OC(F)(F)F)c2)c1 [B2I064-01, 4-[4-[[3-(5-Ethoxypyridin-3-yl)-5-(trifluoromethoxy)phenyl]methyl]piperazin-1-yl]-N-methylsulfonylbenzamide]

- ASMS ratio (%) (n = 1): 0.0%
- ASMS ratio (%) (n = 2): 0.0%
Compound: CCOc1cncc(-c2cc(CN3CCN(c4ccc(C(=O)NS(=O)(=O)C(C)(C)C)nn4)CC3)cc(OC(F)(F)F)c2)c1 [B2L090-01, N-tert-Butylsulfonyl-6-[4-[[3-(5-ethoxypyridin-3-yl)-5-(trifluoromethoxy)phenyl]methyl]piperazin-1-yl]pyridazine-3-carboxamide]

- ASMS ratio (%) (n = 1): 0.0%
- ASMS ratio (%) (n = 2): 0.0%
Compound: CCOc1cncc(-c2cc(OC)c(CN3CCN(c4ccc(C(=O)NS(C)(=O)=O)nn4)CC3)c(OC)c2)c1 [B2I086-01, 6-[4-[[4-(5-Ethoxypyridin-3-yl)-2,6-dimethoxyphenyl]methyl]piperazin-1-yl]-N-methylsulfonylpyridazine-3-carboxamide]

- ASMS ratio (%) n = 1 (AS-MS, mixture library, Bcl-2): 0.0%
- ASMS ratio (%) n = 2 (AS-MS, mixture library, Bcl-2): 0.0%
Compound: CCOc1cccc(-c2ccccc2CCC(=O)N2CCN(c3ccc(C(=O)NS(C)(=O)=O)cc3)CC2)c1 [B2I033-01, 4-[4-[3-[2-(3-Ethoxyphenyl)phenyl]propanoyl]piperazin-1-yl]-N-methylsulfonylbenzamide]

- ASMS ratio (%) n = 1 [1]: 10.8%
- ASMS ratio (%) n = 2 [1]: −12.7%
Compound: CCOc1cccc(-c2cc(CN3CCN(c4ccc(C(=O)N(C)CC56CC7CC(CC(C7)C5)C6)cc4)CC3)cc(OCC)c2)c1 [B3A055-01, N-(1-Adamantylmethyl)-4-[4-[[3-ethoxy-5-(3-ethoxyphenyl)phenyl]methyl]piperazin-1-yl]-N-methylbenzamide]

- ASMS ratio (%) (n = 1): −0.8%
- ASMS ratio (%) (n = 2): 0.5%
Compound: CCOc1cccc(-c2cc(CN3CCN(c4ccc(C(=O)NS(C)(=O)=O)cc4)CC3)cc(C(F)(F)F)c2)c1 [B2I061-01, 4-[4-[[3-(3-Ethoxyphenyl)-5-(trifluoromethyl)phenyl]methyl]piperazin-1-yl]-N-methylsulfonylbenzamide]

- ASMS ratio (%) (n = 1): −1.0%
- ASMS ratio (%) (n = 2): 1.4%
Compound: CCOc1cncc(-c2ccc(CN3CCN(c4ccc(C(=O)NS(=O)(=O)C(C)(C)C)nn4)CC3)cc2C)c1 [B2L074-01, N-tert-Butylsulfonyl-6-[4-[[4-(5-ethoxypyridin-3-yl)-3-methylphenyl]methyl]piperazin-1-yl]pyridazine-3-carboxamide]

- ASMS ratio (%) n = 1 (AS-MS, mixture library, Bcl-2): −2.1%
- ASMS ratio (%) n = 2 (AS-MS, mixture library, Bcl-2): 0.6%
Compound: CCOc1cccc(-c2csc(CN3CCN(c4ccc(C(=O)N(CC)CC)nn4)CC3)c2)c1 [B4J093-01]

- ASMS ratio (%) n = 1 [1]: −3.8%
- ASMS ratio (%) n = 2 [1]: 0.0%
Compound: CCOc1cccc(-c2csc(CN3CCN(c4ccc(C(=O)N(C)CC56CC7CC(CC(C7)C5)C6)nn4)CC3)c2)c1 [B3A093-01, N-(1-Adamantylmethyl)-6-[4-[[4-(3-ethoxyphenyl)thiophen-2-yl]methyl]piperazin-1-yl]-N-methylpyridazine-3-carboxamide]

- ASMS ratio (%) n = 1 (AS-MS, mixture library, Bcl-2): 0.0%
- ASMS ratio (%) n = 2 (AS-MS, mixture library, Bcl-2): 0.0%
Compound: CCOc1cccc(-c2ccc(C(=O)N3CCN(c4ccc(C(=O)NS(C)(=O)=O)nn4)CC3)c3ccccc23)c1 [B2I013-01, 6-[4-[4-(3-Ethoxyphenyl)naphthalene-1-carbonyl]piperazin-1-yl]-N-methylsulfonylpyridazine-3-carboxamide]
